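Cultured in 96-well plates, cells were exposed to test compound for 48 hours across five concentrations. TGI: total growth inhibition.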
Tests used:
Experiment in all cases: NCI tumour cell line growth inhibition, 48 h
SF-268 CNS = test system: SF-268 CNS
PC-3 prostate = test system: PC-3 prostate
OVCAR-4 ovarian = test system: OVCAR-4 ovarian
COLO 205 colon = test system: COLO 205 colon
TK-10 renal = test system: TK-10 renal
DU-145 prostate = test system: DU-145 prostate
MALME-3M melanoma = test system: MALME-3M melanoma
NCI-H522 lung = test system: NCI-H522 lung
T-47D breast = test system: T-47D breast
NCI-H23 lung = test system: NCI-H23 lung
HCT-15 colon = test system: HCT-15 colon
UO-31 renal = test system: UO-31 renal
HOP-92 NSCLC = test system: HOP-92 NSCLC
SW-620 colon = test system: SW-620 colon
SNB-19 CNS = test system: SNB-19 CNS
UACC-62 melanoma = test system: UACC-62 melanoma
M14 melanoma = test system: M14 melanoma
OVCAR-3 ovarian = test system: OVCAR-3 ovarian
CAKI-1 renal = test system: CAKI-1 renal
A549 NSCLC = test system: A549 NSCLC

Compound	TGI (SF-268 CNS)	TGI (PC-3 prostate)	TGI (OVCAR-4 ovarian)	TGI (COLO 205 colon)	TGI (TK-10 renal)	TGI (DU-145 prostate)	TGI (MALME-3M melanoma)	TGI (NCI-H522 lung)	TGI (T-47D breast)	TGI (NCI-H23 lung)	TGI (HCT-15 colon)	TGI (UO-31 renal)	TGI (HOP-92 NSCLC)	TGI (SW-620 colon)	TGI (SNB-19 CNS)	TGI (UACC-62 melanoma)	TGI (M14 melanoma)	TGI (OVCAR-3 ovarian)	TGI (CAKI-1 renal)	TGI (A549 NSCLC)
CCCCCC(O)[C@H]1C(=O)C[C@@H](O[Si](C)(C)C(C)(C)C)[C@@H]1/C=C/CCOCc1ccccc1 (stereo not given in full)	33.2 µM	30.9 µM	34.1 µM	41.5 µM	28.5 µM	46.4 µM	28.8 µM	15 µM	40.1 µM	33.3 µM	27.4 µM	27.5 µM	28.1 µM	41.4 µM	28.5 µM	25.1 µM	34.5 µM	28.1 µM	29.9 µM	> 60.3 µM
COC(=O)C[C@@H]1C(C)(C)[C@@H]2O[C@@]34C[C@@H]2C(=O)[C@]1(C)[C@H]3CC[C@@]1(C)[C@H](c2ccoc2)OC(=O)C[C@]14O	> 100 µM	> 100 µM	> 100 µM	> 100 µM	> 100 µM	> 100 µM	> 100 µM	> 100 µM	> 100 µM	> 100 µM	> 100 µM	–	> 100 µM	> 100 µM	> 100 µM	> 100 µM	> 100 µM	> 100 µM	> 100 µM	> 100 µM
COc1cccc2c(NNc3ccccc3)c3ccc([N+](=O)[O-])cc3nc12	> 100 µM	> 100 µM	> 100 µM	> 100 µM	> 100 µM	> 100 µM	> 100 µM	> 100 µM	> 100 µM	> 100 µM	> 100 µM	61 µM	> 100 µM	> 100 µM	> 100 µM	> 100 µM	> 100 µM	> 100 µM	> 100 µM	> 100 µM
CCOC(=O)c1sc2nc(SC)nc3c2c1N=CN3c1ccccc1Cl	> 100 µM	> 100 µM	42.4 µM	> 100 µM	> 100 µM	> 100 µM	> 100 µM	> 100 µM	> 100 µM	> 100 µM	> 100 µM	> 100 µM	74.5 µM	> 100 µM	> 100 µM	> 100 µM	> 100 µM	> 100 µM	89.1 µM	> 100 µM
O=C(C#CP(=O)(O)c1ccccc1)c1ccccc1	> 100 µM	> 100 µM	> 100 µM	> 100 µM	> 100 µM	> 100 µM	> 100 µM	> 100 µM	> 100 µM	> 100 µM	> 100 µM	4.14 µM	> 100 µM	> 100 µM	> 100 µM	> 100 µM	> 100 µM	> 100 µM	> 100 µM	> 100 µM
COC(=O)C1=NN2c3ccccc3C(=O)OCCC2(C)C1 (stereo not given)	> 100 µM	> 100 µM	> 100 µM	> 100 µM	> 100 µM	> 100 µM	> 100 µM	> 100 µM	> 100 µM	> 100 µM	> 100 µM	> 100 µM	> 100 µM	> 100 µM	–	> 100 µM	–	> 100 µM	> 100 µM	> 100 µM
C=CC1ON(C)CCc2cc(OC)c(OC)cc21 (stereo not given)	> 100 µM	> 100 µM	–	> 100 µM	> 100 µM	> 100 µM	> 100 µM	> 100 µM	> 100 µM	> 100 µM	> 100 µM	> 100 µM	> 100 µM	> 100 µM	> 100 µM	> 100 µM	> 100 µM	> 100 µM	> 100 µM	> 100 µM
CC1(C)C=C(/C=N/Nc2ccc([N+](=O)[O-])cc2)C(C#N)=C(O)C1(C#N)C#N	> 100 µM	> 100 µM	> 100 µM	> 100 µM	> 100 µM	> 100 µM	> 100 µM	> 100 µM	> 100 µM	> 100 µM	> 100 µM	> 100 µM	> 100 µM	> 100 µM	> 100 µM	> 100 µM	> 100 µM	> 100 µM	> 100 µM	> 100 µM
Cc1ccc(S(=O)(=O)OC2=C/C(=N\c3onc(C)c3C)c3ccccc3C2=O)cc1	77.5 µM	40.1 µM	29.9 µM	> 100 µM	92.7 µM	> 100 µM	43.3 µM	21.1 µM	64.8 µM	73.8 µM	> 100 µM	30.7 µM	33.2 µM	80.1 µM	64.8 µM	57.7 µM	> 100 µM	30.1 µM	37.8 µM	> 100 µM
COC(=O)c1ccc(N=NN(C)COc2ccc(C#N)cc2)cc1	> 100 µM	> 100 µM	> 100 µM	> 100 µM	> 100 µM	> 100 µM	> 100 µM	> 100 µM	> 100 µM	> 100 µM	> 100 µM	> 100 µM	> 100 µM	> 100 µM	> 100 µM	–	> 100 µM	> 100 µM	> 100 µM	> 100 µM
COC(=O)[C@@H]1C[C@H]([Se]c2ccccc2)CN1S(=O)(=O)c1ccc(C)cc1	> 100 µM	> 100 µM	> 100 µM	> 100 µM	> 100 µM	> 100 µM	> 100 µM	> 100 µM	> 100 µM	> 100 µM	> 100 µM	> 100 µM	> 100 µM	> 100 µM	> 100 µM	> 100 µM	> 100 µM	> 100 µM	> 100 µM	> 100 µM
CC(=O)CCNc1ccc(-c2cc(-c3ccc(N(C)C)cc3)nc3ccc4ccccc4c23)cc1	> 100 µM	> 100 µM	> 100 µM	> 88.3 µM	> 100 µM	> 100 µM	> 100 µM	> 100 µM	> 100 µM	> 100 µM	> 100 µM	> 100 µM	> 100 µM	> 100 µM	> 100 µM	> 100 µM	> 88.8 µM	> 100 µM	> 100 µM	> 100 µM
NCC#CCNCCCN1CC1	> 100 µM	> 100 µM	> 100 µM	> 100 µM	> 100 µM	> 100 µM	> 100 µM	> 100 µM	> 100 µM	> 100 µM	> 100 µM	–	> 100 µM	> 100 µM	> 100 µM	> 100 µM	> 100 µM	> 100 µM	> 100 µM	> 100 µM
NS(=O)(=O)c1ccc(NNc2c3ccccc3nc3ccccc23)cc1	17.7 µM	16.1 µM	17.2 µM	13.9 µM	26.4 µM	23.6 µM	15.9 µM	16.4 µM	20.4 µM	22.1 µM	15.5 µM	18.1 µM	23.4 µM	16.6 µM	25.7 µM	17.2 µM	15.9 µM	15 µM	18.9 µM	25.6 µM
N#Cc1c(-c2ccccc2)c(N=Nc2ccc(F)cc2)c(=O)n2c1[nH]c1ccccc12	39.5 µM	> 35.2 µM	31.5 µM	13 µM	25.8 µM	> 100 µM	72.5 µM	14.7 µM	40.8 µM	> 75.7 µM	> 100 µM	20.6 µM	14.2 µM	> 100 µM	33.5 µM	26.3 µM	27.3 µM	8.57 µM	16.4 µM	19.3 µM
COc1[nH]c(C(Cl)(Cl)Cl)c(Cl)c(=O)c1Cl	–	> 100 µM	> 100 µM	> 100 µM	> 100 µM	> 100 µM	> 100 µM	> 100 µM	> 100 µM	> 100 µM	> 100 µM	> 100 µM	> 100 µM	> 100 µM	> 100 µM	> 100 µM	–	> 100 µM	> 100 µM	> 100 µM
Cc1cc2c(cc1Cl)SC(N/N=C(\N)c1ccc(Cl)cc1)=NS2(=O)=O	> 100 µM	> 100 µM	> 100 µM	> 100 µM	> 100 µM	> 100 µM	> 100 µM	> 100 µM	> 100 µM	> 100 µM	> 100 µM	> 100 µM	58.9 µM	> 100 µM	> 100 µM	> 100 µM	> 100 µM	> 100 µM	> 100 µM	> 100 µM
Cc1cccc(N=Nc2c(C)nn(C(=O)CC(=O)Nc3ccccc3)c2C)c1	> 100 µM	> 100 µM	> 100 µM	> 100 µM	> 100 µM	> 100 µM	> 100 µM	> 100 µM	> 100 µM	> 100 µM	> 100 µM	> 100 µM	> 100 µM	> 100 µM	> 100 µM	> 100 µM	> 100 µM	> 100 µM	> 100 µM	> 100 µM
O=S(=O)(N=S(c1ccc(Cl)cc1)c1ccc(Cl)cc1)c1ccccc1	> 100 µM	> 100 µM	> 100 µM	> 100 µM	> 100 µM	> 100 µM	> 100 µM	> 100 µM	> 100 µM	> 100 µM	> 100 µM	> 100 µM	> 100 µM	> 100 µM	> 100 µM	> 100 µM	> 100 µM	–	> 100 µM	> 100 µM
O=c1c2cc([N+](=O)[O-])ccc2n(Cc2ccccc2)n1Cc1ccccc1	> 31.6 µM	31 µM	> 31.6 µM	> 31.6 µM	> 31.6 µM	> 31.6 µM	> 31.6 µM	23.6 µM	24.7 µM	> 31.6 µM	> 31.6 µM	27.3 µM	> 31.6 µM	> 31.6 µM	> 31.6 µM	21.4 µM	20.7 µM	> 31.6 µM	> 31.6 µM	> 31.6 µM
O=C1OCC2(CO1)CC1C=CC2C1 (stereo not given)	> 100 µM	> 100 µM	> 100 µM	> 100 µM	> 100 µM	> 100 µM	> 100 µM	> 100 µM	> 100 µM	> 100 µM	> 100 µM	> 100 µM	> 100 µM	> 100 µM	> 100 µM	> 100 µM	> 100 µM	> 100 µM	> 100 µM	> 100 µM
Nc1cc2c3c(cccc3c1)C(=O)N(c1ccc(OCCN3CCCCC3)cc1)C2=O	37.7 µM	32.9 µM	35.7 µM	35.7 µM	31.3 µM	33.5 µM	19.8 µM	35.2 µM	46.6 µM	30.2 µM	25.4 µM	24.1 µM	34.2 µM	48.5 µM	32.4 µM	36.6 µM	32.3 µM	30.7 µM	32.4 µM	28.2 µM
CCCCCCCCCCCCn1c(=O)cc(NCCCC)c2cc3c(NCCCC)cc(=O)n(CCCCCCCCCCCC)c3nc21	> 100 µM	> 100 µM	> 100 µM	> 100 µM	> 100 µM	> 100 µM	> 100 µM	> 100 µM	> 100 µM	> 100 µM	> 100 µM	> 100 µM	> 100 µM	–	> 100 µM	> 100 µM	> 100 µM	> 100 µM	> 100 µM	> 100 µM
